Tests used:
[1] = test system: PP2Cs HAB1, ABI1, and ABI2; test: Phosphatase assays, PYR/PYL receptor-dependent inhibition of PP2Cs; assay type: biochemical
Method: To determine the biochemical basis of these observations, we used purified proteins of PYR1 and PYL1 to PYL6 to measure their interactions with three PP2Cs, HAB1, ABI1, and ABI2, in vitro. […] In phosphatase assays, pyrabactin promoted PYR1, PYL1, PYL3, PYL5, and PYL6, but not PYL2 and PYL4, to inhibit all three PP2Cs.
(§1) Mutant proteins were expressed as H6GST-fusion proteins and purified by glutathione sepharose chromatography. Protein-protein interactions were determined by luminescence proximity AlphaScreen assay. Biotinylated PP2C proteins for the luminescence proximity assay were generated by in vivo biotinylation of avitag-PP2C fusion proteins. PP2C phosphatase activity was measured by phosphate release from a SnRK2.6 phosphoprotein.
PP2Cs and PYR/PYL proteins were pre-incubated at the indicated concentrations in 50 mM imidazole, pH 7.2, 5 mM MgCl2, 0.1% β-mercaptoethanol and 0.5 mg/ml BSA for 30 min at room temperature. Reactions were started by addition of 100 μM of a phosphopeptide corresponding to amino acids 170-180 of SnRK2.6 (HSQPK^pSTVGTP). This peptide is phosphorylated at a single residue corresponding to Ser175 in SnRK2.6, whose phosphorylation is required for SnRK2.6 kinase activity^32. Phosphate release from ^pS175 from the phosphopeptide was determined by colorimetric assay (BioVision).

PYL2 A93F = molecular target: T1, PYL2 A93F (Arabidopsis thaliana, UniProt O80992, A93F); test: PP2C binding and phosphatase assays of mutant PYL2 A93F; assay type: biochemical
T1 construct: PYL2 (residues 14-188), and HAB1 (residues 172-511) were prepared as recombinant proteins in E. coli; made in house; host or cells: E. coli (stated for PYL2 in general)
Source text: The closest distance between the pyridine ring of pyrabactin and the LPA gating residues is 4.8 Å-7.0 Å when the LPA loop assumes the ABA-bound closed conformation, but is 11-13 Å when the LPA gate is in open conformation. In contrast, the distance of the naphthalene double ring of pyrabactin or the cyclohexene ring of ABA to the three side chains of the LPA gate in the PYL1 structure is 3.4-4.6 Å, a range for strong Van der Waals interactions, thus helping to keep the LPA gate in the closed conformation. […] To validate this hypothesis, we changed the alanine in the LPA loop to a larger residue. […] As expected from structural modeling, replacement of the gate residue A93 with the bulky phenylalanine ring also abrogated ABA to promote PYL2 activation.
as §1
Site-directed mutagenesis was carried out using the QuickChange method (Stratagene). Mutations and all plasmid constructs were confirmed by sequencing.

[2] = test system: HAB1 PP2C / PYR/PYL receptors; conditions: yeast two-hybrid; cited from earlier work
PYR1 = molecular target: T2, PYR1 (Arabidopsis thaliana, UniProt O49686); conditions: in vivo; cited from earlier work
T2 sequence (O49686 1-191): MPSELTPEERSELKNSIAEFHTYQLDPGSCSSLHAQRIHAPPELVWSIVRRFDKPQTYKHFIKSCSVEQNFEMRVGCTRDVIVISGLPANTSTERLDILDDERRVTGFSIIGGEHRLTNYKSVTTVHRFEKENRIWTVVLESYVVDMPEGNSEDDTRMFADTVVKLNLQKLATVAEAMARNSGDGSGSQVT

T1 sequence (O80992 14-188 A93F): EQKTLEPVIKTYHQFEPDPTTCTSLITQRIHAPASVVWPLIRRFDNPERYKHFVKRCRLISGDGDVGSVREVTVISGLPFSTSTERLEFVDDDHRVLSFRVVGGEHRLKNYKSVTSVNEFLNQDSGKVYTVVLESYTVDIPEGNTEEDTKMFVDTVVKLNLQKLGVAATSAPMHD

SMILES: O=S(=O)(NCc1ccccn1)c1ccc(Br)c2ccccc12 [Pyrabactin, pyrabactin]
- Effect on ABA-dependent inhibition of PP2Cs by PYL2 ([1]; high concentrations of pyrabactin, in the presence of ABA): reversed
- Promotion of PYL1 to inhibit all three PP2Cs ([1]; phosphatase assays, receptor PYL1): promoted
- Promotion of PYL2 to inhibit all three PP2Cs ([1]; phosphatase assays, receptor PYL2): not and did not promote
- Promotion of PYL3 to inhibit all three PP2Cs ([1]; phosphatase assays, receptor PYL3): promoted
- Promotion of PYL4 to inhibit all three PP2Cs ([1]; phosphatase assays, receptor PYL4): not
- Promotion of PYL5 to inhibit all three PP2Cs ([1]; phosphatase assays, receptor PYL5): promoted
- Promotion of PYL6 to inhibit all three PP2Cs ([1]; phosphatase assays, receptor PYL6): promoted
- Promotion of PYR1 to inhibit all three PP2Cs ([1]; phosphatase assays, receptor PYR1): promoted
- Activation of mutant PYL2 A93F receptor (PYL2 A93F): pyrabactin-activated receptor
- Interaction of the HAB1 PP2C with PYL1 [2]: promoted
- Interaction of the HAB1 PP2C with PYL2 [2]: not
- Interaction of the HAB1 PP2C with PYL3 [2]: promoted
- Interaction of the HAB1 PP2C with PYL4 [2]: not
- Interaction of the HAB1 PP2C with PYR1 [2]: promoted
- Activity at PYR1 in a seed germination assay (PYR1): selective agonist
